# Laboratory results taken from patent US9254308B2, “Kits and methods for the treatment of cancer using gliadin peptides” (BARMARSA RESEARCH LLC, priority 2013, dated 2016).
# Where no end group is shown, it is not given here.
# How the values were obtained:
# A549 cells [1] = test: TUNEL apoptosis assay, A549 cells; assay type: cell-based, human; conditions: A549, 72 h, 1 μM gefitinib alone
# Description: The ability of alpha-gliadin p31-43 to induce apoptosis in cancer cells was assessed. […] Cells were grown in the presence of 5% CO2 at 37° C. in an incubator.
# Briefly, A549 cells (1×10^5) were plated in chamber slides and allowed to adhere overnight. […] After the 72-hour treatment, the cells were fixed with 4% formaldehyde in PBS (pH 7.4) for 25 minutes at room temperature, then washed twice for 5 minutes in PBS, permeabilized in 0.2% Triton X-100 solution in PBS for 5 minutes at room temperature, and finally washed twice for 5 minutes in PBS. Apoptosis was measured using the DeadEnd™ Colorimetric TUNEL System (Promega, Madison, Wis.) according to the manufacturer's instructions. At the end of the assay, the cells were mounted and observed under the microscope.
# NSCLC = conditions: Caucasian NSCLC patients; Gottschling 2012; cited from earlier work
# A549 NSCLC cells = test: MTT growth inhibition, A549 cells, 72-hour treatment
# Description: (§1) Cells were kept at 37° C. in a humidified atmosphere of 5% CO2 and grown until they reached a confluency of 90%. Cells were then washed, trypsinized, and counted using a Coulter counter.
# A549 NSCLC cells were maintained and cultured as described above. […] Cells were plated at a density of 10,000 cells/well in 24-well cell culture plates and allowed to adhere for 24 hours. […] All experiments were conducted in sextuplicate. […] Following 72 hours of treatment, growth inhibition was evaluated by the 3-(4,5-dimethylthiazol-2-yl)-2,5-diphenyltetrazolium bromide (MTT) assay (Roche Diagnostics Corporation, Indianapolis, Ind.) according to the manufacturer's instructions. The absorbance at 570 nm was measured using a plate reader (BioTek, Winooski, Vt.).
# [2] = system: A549 human lung cancer xenograft; test: A549 human lung cancer xenograft model, tumor volume; assay type: in vivo, nude mice; conditions: alone or with 200 μg gliadin i.v.; for Mean Tumor Volume: 150 mg/kg gefitinib by gavage once daily 14 days
# Text: Six-week old female nude mice (Harlan Laboratories, Indianapolis, Ind.) were quarantined for 3 days and housed 5 mice per cage, with a 12-hour light-dark cycle, and a relative humidity of 50%. Drinking water and diet were supplied to the animals ad libitum. All animals were housed under pathogen-free conditions. […] The animals were monitored for two weeks following the 14-day treatment period. Tumor measurements were initiated as soon as the tumor formed a palpable mass and measured twice weekly.
# [3] = system: PANC-1 pancreatic carcinoma cells; test: MTT growth inhibition, PANC-1 cells, 72-hour treatment; conditions: for Mean absorbance (570 nm): PANC-1, 72 h, 1 μg/mL gefitinib or erlotinib alone
# Description: as §1
# (§2) Cells were plated at a density of 10,000 cells/well in 24-well cell culture plates and allowed to adhere for 24 hours. […] All experiments were conducted in sextuplicate. […] Following 72 hours of treatment, growth inhibition was evaluated by the MTT assay according to the manufacturer's instructions. The absorbance at 570 nm was measured using a plate reader.
# A549 cells [4] = test: Cell count, A549 cells, cisplatin 72-hour treatment; assay type: cell-based, human; conditions: A549, 72 h
# Description: All experiments were conducted in triplicate.
# A549 cells [5] = test: Cell count, A549 cells, 14-day treatment regimen; assay type: cell-based, human; conditions: A549, 14 days; 3.3 μM cisplatin
# Description: All treatments were conducted in triplicate. […] Media was refreshed with the respective treatments every 72 hours.
# [6] = system: NCI-H1975 NSCLC cells (EGFR L858R, T790M); test: MTT growth inhibition, NCI-H1975 cells, 72-hour treatment
# Description: as §1, §2
# [7] = system: PANC-1 human pancreatic carcinoma cells; test: Cell count, PANC-1 cells, 5-FU 72-hour treatment; assay type: cell-based; conditions: PANC-1, 72 h
# PANC-1 cells = test: Cell count, PANC-1 cells, 14-day treatment regimen; assay type: cell-based, human
# Description: All treatments were conducted in triplicate. […] Media was refreshed with the respective treatments every 72 hours. After 14 days of treatment, cells were trypsinized and counted.
# [8] = Toxicity in BALB/c mice (body weight, behavior, deaths); assay type: in vivo; conditions: female BALB/c mice
# Description: The toxicity of alpha-gliadin peptide p31-43 in animals was evaluated. Five- to six-week old female BALB/c mice were dosed with vehicle (100 μL DMSO/saline) administered subcutaneously once a day for five days (Group 1) or 200 μg of alpha-gliadin peptide p31-43 in vehicle administered subcutaneously once a day for five days (Group 2). To prepare the gliadin solution, 70 μL of sterile DMSO was added to 1 mg of alpha-gliadin peptide p31-43 and vortexed to dissolve the peptide. After the peptide was dissolved, 430 μL of sterile 0.9% sodium chloride was added and vortexed to create a 1000 μg/500 μL solution of alpha-gliadin peptide p31-43.
# Toxicity was evaluated using daily weight measurements and behavior assessments. […] At the end of the study, the mean body weights (±SE) were 19.8±0.4 grams for Group 1 (n=5) and 20.0±0.3 grams for Group 2 (n=5). […] Alpha-gliadin peptide p31-43 was therefore tolerated at a dosing level of 10 mg/kg/day without apparent toxicity.
# [9] = system: 5-FU-resistant PANC-1 cells; test: Cell count, surviving 5-FU-resistant PANC-1 cells, 7-day gliadin treatment; assay type: cell-based, human; conditions: 100 μg/mL or 200 μg/mL for 7 additional days
# Description: In order to examine the effects of alpha-gliadin peptide p31-43 on PANC-1 cells exposed to 5-FU for an extended period of time (14 days), an experiment was conducted on the surviving, i.e., resistant, cell population (4%) from the previous experiment. Briefly, after counting viable cells on day 14 of treatment, surviving cells were replated at a density of 5,000 cells per well. The following day, cells were treated with vehicle or 100 μg/mL or 200 μg/mL of alpha-gliadin peptide p31-43. Media containing the respective treatments was refreshed on day 3 and 6. On day 7, cells were trypsinized and counted.
# [10] = 200 μg subcutaneously once a day for five days
compound,measurement,setting,value
COc1cc2ncnc(Nc3ccc(F)c(Cl)c3)c2cc1OCCCN1CCOCC1 [gefitinib],Mean % apoptotic,A549 cells [1],19%
same,patients exhibiting significant changes in disease progression following therapy,NSCLC,about 10%
same,Mean absorbance (570 nm),A549 NSCLC cells,1.35
same,tumor doubling time,"[2]; A549 xenograft, 150 mg/kg gefitinib",24.48 days
same,Mean Tumor Volume,[2]; Study Day 4 (dosing period),47.74 ± 2.87 mm^3
same,Mean Tumor Volume,[2]; Study Day 7 (dosing period),51.67 ± 5.69 mm^3
same,Mean Tumor Volume,[2]; Study Day 11 (dosing period),49.30 ± 3.77 mm^3
same,Mean Tumor Volume,[2]; Study Day 14 (dosing period),60.43 ± 5.35 mm^3
same,Mean Tumor Volume,[2]; Study Day 18 (recovery period),75.40 ± 9.05 mm^3
same,Mean Tumor Volume,[2]; Study Day 21 (recovery period),95.22 ± 11.15 mm^3
same,Mean Tumor Volume,[2]; Study Day 25 (recovery period),157.69 ± 14.76 mm^3
same,Mean Tumor Volume,"[2]; Study Day 28 (recovery period, termination), 150 mg/kg",239.25±32.78 mm^3
same,Mean absorbance (570 nm),[3],2.11
N.N.[Cl][Pt][Cl] [cisplatin],% Inhibition,A549 cells [4]; cisplatin 0.103 μM,13.5%
same,Mean Cell,A549 cells [4]; cisplatin 0.103 μM,"166,883"
same,% Inhibition,A549 cells [4]; cisplatin 0.207 μM,21.8%
same,Mean Cell,A549 cells [4]; cisplatin 0.207 μM,"150,917"
same,% Inhibition,A549 cells [4]; cisplatin 0.413 μM,42.0%
same,Mean Cell,A549 cells [4]; cisplatin 0.413 μM,"111,917"
same,% Inhibition,A549 cells [4]; cisplatin 0.825 μM,74.9%
same,Mean Cell,A549 cells [4]; cisplatin 0.825 μM,"48,400"
same,% Inhibition,A549 cells [4]; cisplatin 1.650 μM,91.6%
same,Mean Cell,A549 cells [4]; cisplatin 1.650 μM,"16,117"
same,% Inhibition,A549 cells [4]; cisplatin 3.300 μM,94.8%
same,Mean Cell,A549 cells [4]; cisplatin 3.300 μM,"10,033"
same,% Inhibition,A549 cells [5],98%
same,Mean Cell Number/mL,A549 cells [5],"5,780 /mL"
C#Cc1cccc(Nc2ncnc3cc(OCCOC)c(OCCOC)cc23)c1 [erlotinib],patients exhibiting significant changes in disease progression following therapy,NSCLC,about 10%
same,% Inhibition,A549 NSCLC cells,3.4%
same,Mean absorbance (570 nm),A549 NSCLC cells,1.44
same,Mean absorbance (570 nm),[6],1.73
same,% Inhibition,[3],0%
same,Mean absorbance (570 nm),[3],1.98
"O=c1[nH]cc(F)c(=O)[nH]1 [5-FU, 5-Fluorouracil]",inhibition at 6.25 µM,"[7]; Homo sapiens, 5-FU 6.25 μM",63.3%
same,inhibition at 12.5 µM,"[7]; Homo sapiens, 5-FU 12.5 μM",63%
same,inhibition at 25 µM,"[7]; Homo sapiens, 5-FU 25.0 μM",62.8%
same,inhibition at 50 µM,"[7]; Homo sapiens, 5-FU 50.0 μM",63%
same,inhibition at 100 µM,"[7]; Homo sapiens, 5-FU 100.0 μM",68.5%
same,inhibition at 200 µM,"[7]; Homo sapiens, 5-FU 200.0 μM",73.6%
same,inhibition at 400 µM,"[7]; Homo sapiens, 5-FU 400.0 μM",79.2%
same,Mean Cell Number/mL,[7]; 5-FU 6.25 μM,"116,500 /mL"
same,Mean Cell Number/mL,[7]; 5-FU 12.5 μM,"117,500 /mL"
same,Mean Cell Number/mL,[7]; 5-FU 25.0 μM,"118,200 /mL"
same,Mean Cell Number/mL,[7]; 5-FU 50.0 μM,"100,200 /mL"
same,Mean Cell Number/mL,[7]; 5-FU 100.0 μM,"117,600 /mL"
same,Mean Cell Number/mL,[7]; 5-FU 200.0 μM,"83,900 /mL"
same,Mean Cell Number/mL,[7]; 5-FU 400.0 μM,"66,200 /mL"
same,inhibition at 6.25 µM,"PANC-1 cells; Homo sapiens, 336 h, PANC-1, 14 days, 6.25 μM 5-FU",96%
same,Mean Cell Number/mL,"PANC-1 cells; PANC-1, 14 days, 6.25 μM 5-FU","33,233 /mL"
same,"surviving 5-FU-resistant population remaining viable, of the initial population","PANC-1 cells; PANC-1, following 14-day 5-FU treatment",4%
"LGQQQPFPPQQPY [gliadin, alpha-gliadin peptide p31-43]",behavior changes compared to control mice,[8]; [10],No behavior changes were observed
same,treatment-related deaths,[8]; [10],no treatment-related deaths
same,mean body weight (±SE) at the end of the study,"[8]; 200 μg subcutaneously once a day for five days, n=5",20.0±0.3 grams
same,NOAEL at 120 h,"[8]; mouse, in vivo, sc, 200 ug, subcutaneously, five days, read-out: dosing level tolerated without apparent toxicity",10 mg/kg/day
same,cell proliferation of surviving 5-FU-treated PANC-1 cells,[9],cell proliferation was significantly suppressed
